Experimental data taken from patent publication US20240139217A1, “FORMULATIONS OF CANNABINOIDS” (ADD Advanced Drug Deliver Technologies LTD., priority 2021, published 2024).

Experiment: Clinical study of bioavailability and pharmacokinetic properties, multiple oral dose crossover
Type: in vivo, healthy subjects
Conditions: Mean; analyte cannabidiol in plasma; 1,500 mg CBD oral twice daily over 7 days after a light meal; 144-168 h
Protocol: Bioavailability and pharmacokinetic properties of cannabidiol when administered orally in the form of the above described CBD granules containing 29.7% w/w cannabidiol was assessed in a clinical study.
The study involved a comparison with a reference product, an oily cannabidiol solution (DAC C-052 “Cannabidiol”/NRF 22.10 “Ölige Cannabidiol-Lösung 100 mg/ml” (“Oily cannabidiol solution 100 mg/ml”)) and was set up as an open-label, randomised (order of treatments), balanced, multiple dose trial was performed in a 2-period, 2-sequence-crossover design with direct switch-over.
Eighteen (18) healthy subjects of both sexes were randomised. The inclusion criteria involved a body-mass index (BMI)≥18.5 kg/m^2 and ≤30.0 kg/m^2.
The investigational medicinal products were administered after a light meal as single oral doses of 1500 mg cannabidiol (i.e., 5.051 g granules dispersed in water or 15 ml solution) twice daily (i.e., every 12 h) over 7 consecutive days.
Steady-state characterisation was performed over 2 dosing intervals. […]
Cannabidiol (CBD) and its metabolite 7-hydoxy cannabidiol (7-OH-CBD) in plasma samples were analysed by use of a validated LC-MS/MS; LLOQ for CBD was 5.00 ng/ml and for 7-OH-CBD was 1.000 ng/ml.

## C=C(C)[C@@H]1CCC(C)=C[C@H]1c1c(O)cc(CCCCC)cc1O [cannabidiol, 2-[(1R,6R)-3-methyl-6-(1-methylethenyl)-2-cyclohexen-1-yl]-5-pentyl-1,3-benzenediol]
  PTF %,144-168: about 250%
